{
  "source": "paper PMC10283505",
  "about": "“CVM-1118 (foslinanib), a 2-phenyl-4-quinolone derivative, promotes apoptosis and inhibits vasculogenic mimicry via targeting TRAP1” (Pathology and Oncology Research, 2023)",
  "key": {"[1]": {"tested_on": "human melanoma (C8161) cells", "experiment": "In vitro VM assay (3D Matrigel tubular network)", "format": "cell-based", "settings": "24 h", "description": "Aggressive human melanoma (C8161) cells were seeded at 1.0 × 10^5 onto 3D polymerized LDEV-free Matrigel (75 μL; 14 mg/ml; Corning Cat. No. 356232) for VM analysis in 12-well dishes containing no drug or various concentrations of CVM-1118. Matrigel-coated dishes were photographed for tubular network formation after 24 h."}, "K-562": {"tested_on": "K-562", "experiment": "NCI 60 cytotoxicity screening", "format": "cell-based", "settings": "Homo sapiens, K562; K-562, Leukemia"}, "SKOV3": {"tested_on": "SKOV3", "experiment": "Succinate level (Abcam kit, hypoxia)", "format": "cell-based, human", "settings": "SKOV3, 100 nM, 72 h, vs vehicle control", "description": "(§1) Succinate levels in the cells were assessed using the Abcam assay kit (ab204718). Cells were grown under hypoxic conditions (1% O2) at 37°C using a ProOx P110 Oxygen Controller (BioSpherix) and hypoxia chamber to establish a consistent and steady expression of HIF-1α in these cells for the experiments. At 80% confluence, cells were rinsed with phosphate buffered saline (PBS; 137 mM NaCl/2.7 mM KCl/10 mM Na2HPO4/1.8 mM KH2PO4, pH 7.4), then harvested by scrapping into a modified radio-immunoprecipitation assay (RIPA) buffer (100 mM Tris-HCl, 150 mM NaCl, 1% deoxycholate, 1% Triton X-100, 0.1% SDS, pH 7.4) plus protease inhibitor cocktail (Complete Mini; Roche) using 100 μL buffer per 1 × 10^6 cells. After sonication using a Fisher sonic dismembrator with microprobe (Fisher Scientific; five pulses at 2 s intervals) and centrifugation at 13,000 rpm for 30 min, the protein lysates (supernatants) were recovered, and protein concentrations determined using a bicinchoninic acid (BCA) assay (Bio-Rad). The samples were then deproteinated using Abcam 10 kDa Spin Columns (ab93349; which reduced the protein concentration by about 90%) and the samples were standardized at <10 μg of protein per sample per 50 μL of assay volume (as directed by the Abcam technical response team for working with these samples). The concentration of succinate (nmol/μL or μmol/mL or […]) for each sample was calculated after subtracting a background control (which was the sample run with assay buffer in place of the succinate converter component to account for and subtract any contaminating signal generated by NADH), as follows: Succinate = (A/B) × D; where: A = Amount of succinate (succinic acid) from the Standard Curve; B = Sample volume added into the reaction well (μL); D = Sample dilution factor. Two separate experiments were performed for each cell line."}, "MDA-MB-231": {"tested_on": "MDA-MB-231", "experiment": "Succinate level (Abcam kit, hypoxia)", "format": "cell-based, human", "settings": "MDA-MB-231, 100 nM, 72 h, vs vehicle control", "description": "as §1"}, "COLO205": {"tested_on": "COLO205", "experiment": "Succinate level (Abcam kit, hypoxia)", "format": "cell-based, human", "settings": "COLO205, 100 nM, 72 h, vs vehicle control", "description": "as §1"}, "SK-MEL28": {"tested_on": "SK-MEL28", "experiment": "Succinate level (Abcam kit, hypoxia)", "format": "cell-based, human", "settings": "SK-MEL28, 100 nM, 72 h, vs vehicle control", "description": "as §1"}, "RXF 393": {"tested_on": "RXF 393", "experiment": "NCI 60 cytotoxicity screening", "format": "cell-based", "settings": "Homo sapiens; RXF 393, Renal"}, "Renin receptor (ATP6IP2)": {"target": "Renin receptor (ATP6IP2) (Homo sapiens, UniProt O75787)", "sequence (O75787 17-350)": "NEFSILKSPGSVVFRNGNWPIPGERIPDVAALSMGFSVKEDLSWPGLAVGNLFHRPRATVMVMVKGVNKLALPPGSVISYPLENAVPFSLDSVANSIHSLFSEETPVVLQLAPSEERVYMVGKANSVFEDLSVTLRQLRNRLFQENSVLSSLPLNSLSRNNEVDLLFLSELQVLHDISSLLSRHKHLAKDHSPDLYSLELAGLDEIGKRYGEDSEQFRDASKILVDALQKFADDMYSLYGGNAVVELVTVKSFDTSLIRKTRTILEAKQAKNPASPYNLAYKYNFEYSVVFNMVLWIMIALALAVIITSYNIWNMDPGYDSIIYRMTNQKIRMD", "experiment": "Surface plasmon resonance (Biacore)", "format": "binding", "settings": "ATP6IP2, SPR"}, "SNB-19": {"tested_on": "SNB-19", "experiment": "NCI 60 cytotoxicity screening", "format": "cell-based", "settings": "Homo sapiens; SNB-19, CNS"}, "PC-3": {"tested_on": "PC-3", "experiment": "NCI 60 cytotoxicity screening", "format": "cell-based", "settings": "Homo sapiens; PC-3, Prostate"}},
  "data": [
    {"smiles": "COc1ccc2[nH]c(-c3cccc(F)c3)cc(=O)c2c1OP(=O)(O)O", "note": "[CVM-1118]", "values": [
      {"measurement": "VM (in vitro) tubular network formation", "setting": "[1]; C8161, 5 nM", "result": "disrupted"},
      {"measurement": "VM (in vitro) tubular network formation", "setting": "[1]; C8161, 10 nM", "result": "significantly inhibited"},
      {"measurement": "VM (in vitro) tubular network formation", "setting": "[1]; C8161, 50 nM", "result": "significantly inhibited"}
    ]},
    {"smiles": "COc1ccc2[nH]c(-c3cccc(F)c3)cc(=O)c2c1O", "note": "[CVM-1125]", "values": [
      {"measurement": "GI50", "setting": "K-562", "result": 24.1, "unit": "nM"},
      {"measurement": "reduction of succinate levels", "setting": "SKOV3", "result": 35, "unit": "%"},
      {"measurement": "reduction of succinate levels", "setting": "MDA-MB-231", "result": 20, "unit": "%"},
      {"measurement": "reduction of succinate levels", "setting": "COLO205", "result": 18, "unit": "%"},
      {"measurement": "reduction of succinate levels", "setting": "SK-MEL28", "result": 23, "unit": "%"},
      {"measurement": "GI50", "setting": "RXF 393", "result": 17.5, "unit": "nM"},
      {"measurement": "Dissociation (kd)", "setting": "Renin receptor (ATP6IP2)", "result": 0.021, "unit": "s⁻¹"},
      {"measurement": "kon", "setting": "Renin receptor (ATP6IP2); read-out: Association (ka)", "result": 122000, "unit": "M⁻¹ s⁻¹"},
      {"measurement": "Kd", "setting": "Renin receptor (ATP6IP2); read-out: KD (kd/ka)", "result": 173, "unit": "nM"},
      {"measurement": "GI50", "setting": "SNB-19", "result": 28.8, "unit": "nM"},
      {"measurement": "GI50", "setting": "PC-3", "result": 32.6, "unit": "nM"}
    ]}
  ]
}
